Tests used:
Format in all cases: biochemical
[1] = molecular target: T1, Prostaglandin G/H synthase 2 (PTGS2/COX2) (Ovis aries, UniProt P79208); experiment: Colorimetric COX (ovine) inhibitor screening assay kit (Cayman)
T1 sequence (P79208 17-603): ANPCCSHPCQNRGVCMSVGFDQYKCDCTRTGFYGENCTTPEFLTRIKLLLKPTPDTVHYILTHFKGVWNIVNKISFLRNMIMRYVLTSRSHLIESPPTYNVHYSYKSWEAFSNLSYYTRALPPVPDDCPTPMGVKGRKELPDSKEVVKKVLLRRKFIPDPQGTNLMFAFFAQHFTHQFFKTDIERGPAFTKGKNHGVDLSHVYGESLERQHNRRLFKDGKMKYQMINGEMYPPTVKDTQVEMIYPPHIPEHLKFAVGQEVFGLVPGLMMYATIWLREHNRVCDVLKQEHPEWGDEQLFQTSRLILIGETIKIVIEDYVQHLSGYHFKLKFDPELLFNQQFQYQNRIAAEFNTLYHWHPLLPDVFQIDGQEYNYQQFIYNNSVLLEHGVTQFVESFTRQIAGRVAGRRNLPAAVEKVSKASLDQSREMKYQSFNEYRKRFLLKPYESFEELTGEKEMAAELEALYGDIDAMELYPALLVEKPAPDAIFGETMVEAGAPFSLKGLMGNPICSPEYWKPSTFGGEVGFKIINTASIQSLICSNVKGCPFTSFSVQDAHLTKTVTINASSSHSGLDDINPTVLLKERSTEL

[2] = molecular target: T2, Monoamine oxidase A (MAOA) (Homo sapiens, UniProt P21397); experiment: in vitro MAOA inhibition assay (enzyme purchased)
T2 sequence (P21397 1-527): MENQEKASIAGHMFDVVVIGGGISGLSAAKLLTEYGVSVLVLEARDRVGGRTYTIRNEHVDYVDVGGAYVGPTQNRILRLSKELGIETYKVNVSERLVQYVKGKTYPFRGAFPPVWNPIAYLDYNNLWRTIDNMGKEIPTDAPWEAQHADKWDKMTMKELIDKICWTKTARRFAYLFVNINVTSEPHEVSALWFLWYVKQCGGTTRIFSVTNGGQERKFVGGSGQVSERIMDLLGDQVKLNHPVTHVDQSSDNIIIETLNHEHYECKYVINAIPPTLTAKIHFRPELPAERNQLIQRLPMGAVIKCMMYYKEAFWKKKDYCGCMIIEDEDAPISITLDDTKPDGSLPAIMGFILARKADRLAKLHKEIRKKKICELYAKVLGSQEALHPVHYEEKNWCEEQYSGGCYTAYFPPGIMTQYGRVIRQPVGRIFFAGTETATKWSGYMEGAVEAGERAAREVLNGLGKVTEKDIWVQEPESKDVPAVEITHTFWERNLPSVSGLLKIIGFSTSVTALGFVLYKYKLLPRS

Factor Xa (F10) = Factor Xa (F10) (Homo sapiens, UniProt P00742); experiment: SensoLyte Rh110 Factor Xa Assay Kit (enzyme inhibition)
Chain of Factor Xa (F10) (P00742 41-179): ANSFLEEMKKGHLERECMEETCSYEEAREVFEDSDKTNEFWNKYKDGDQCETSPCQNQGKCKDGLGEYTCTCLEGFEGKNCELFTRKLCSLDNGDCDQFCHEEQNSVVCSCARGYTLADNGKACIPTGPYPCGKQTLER
Chain of Factor Xa (F10) (P00742 235-488): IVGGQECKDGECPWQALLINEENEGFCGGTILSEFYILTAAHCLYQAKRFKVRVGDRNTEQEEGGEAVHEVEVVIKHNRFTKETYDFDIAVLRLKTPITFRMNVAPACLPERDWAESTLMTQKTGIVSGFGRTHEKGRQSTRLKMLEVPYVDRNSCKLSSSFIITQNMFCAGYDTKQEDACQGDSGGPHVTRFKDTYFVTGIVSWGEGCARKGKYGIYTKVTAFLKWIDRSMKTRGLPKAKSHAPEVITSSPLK

`O=c1c(O)c(-c2ccc(O)cc2)oc2cc(O)cc(O)c12` [kaempferol] was tested. Which IC50 [1] did it give?
The IC50 was 37400 nM.

How did the IC50 [2] turn out when `O=c1cc(-c2ccc(O)c(O)c2)oc2cc(O)cc(O)c12` [luteolin] was run?
Its IC50 is 10 nM.

Which IC50 (Factor Xa (F10)) does the source give for `O=C(/C=C/c1ccc(O)c(O)c1/C=C/c1ccc(O)c(O)c1)O[C@H](Cc1ccc(O)c(O)c1)C(=O)O` [salvianolic acid A] here?
Its IC50 is 90 nM.

Reference: paper PMC5107896 (Scientific Reports, 2016)
